Test results published in patent US4673562A, “Bisamide bisthiol compounds useful for making technetium radiodiagnostic renal agents” (The Children's Medical Center Corporation, priority 1983, dated 1987).
Several values for one entry are separate records, joined by “and”; a condition that tells them apart may be missing. Equal values may be shown once.

Columns and labels:
[1] = Gamma camera: % total dose in bladder, 99mTc complexes coinjected with 131I-OIH into normal dogs (Tables I, III); assay type: in vivo, dog; parameters: Comparison of % total dose in bladder versus 131I-OIH, column headed by drawing 19 (± s.d.): unit not given here; settings: for % Total Dose In Bladder (gamma camera data) / rate of excretion in the urine: normal dogs; for % Total Dose In Bladder (gamma camera data): single animals; for % total dose in bladder at 35 minutes, Average 99mTc (± s.d) / Comparison of % total dose in bladder versus 131I-OIH, column headed by drawing 19 (± s.d.): Table III; for % total dose in bladder at 35 minutes, Average 99mTc (± s.d): average of dogs; for Comparison of % total dose in bladder versus 131I-OIH, column headed by drawing 19 (± s.d.): dogs; for rate of excretion in the urine: versus 131I-OIH
Method: The two fractions collected from the products of synthesis in each case were denoted (XVIA), (XVIB), (XXXIA), and (XXXIB), respectively.
Images were recorded at 1, 5, 10, 15, 20, 25, 30 and 35 minutes after administration. The initial image at one minute was used to collect 750,000 counts. All subsequent images were exposed for the same length of time as this first image, and the number of counts noted. […] In this way, the counts collected in the camera images cound be related to absolute activity levels (mCi or μCi). The animals were then observed until the urine samples were free of ^99m Tc.
The values represent the calculated % total dose in the camera region of interest set over the bladder.

[2] = Average % total dose in urine samples of dogs (Table II); assay type: in vivo, dog; settings: mean
Source text: The diastereomeric ^99m Tc complexes formed by reduction of pertechnetate in the presence of (2-benzoylthioacetyl)- glycyl-(S-benzoyl)-cysteine methyl ester (compound XVI) and N-2-(benzoylthio)ethyl)-N'-1-carbomethoxy-(2-benzoylthio)ethyl]oxamide (compound XXXI) were synthesized and separated by high pressure liquid chromatography. The two fractions collected from the products of synthesis in each case were denoted (XVIA), (XVIB), (XXXIA), and (XXXIB), respectively.
Samples of each fraction were mixed with appropriate amounts of ^131 I-OIH and coinjected into normal dogs placed under a gamma camera. Images were recorded at 1, 5, 10, 15, 20, 25, 30 and 35 minutes after administration. The initial image at one minute was used to collect 750,000 counts. All subsequent images were exposed for the same length of time as this first image, and the number of counts noted. Immediately after each count, a urine sample was drawn from the bladder via a indwelling catheter, and the ^99m Tc ANd ^131 I activity determined using an ionization chamber. In this way, the counts collected in the camera images cound be related to absolute activity levels (mCi or μCi). The animals were then observed until the urine samples were free of ^99m Tc.
In Table II can be seen the average % total dose valus observed in the urine samples collected at each time point. Also quoted in parentheses are the standard deviation and standard error of the mean.

[3] = in vivo; cited from earlier work

Q: Which results are given for O=C(O)C1C[S][Tc-]23(=[O])[S]CC[N]2C(=O)C(=O)[N]13 (single isomer, unassigned) [XXXIA]?
A: % Total Dose In Bladder (gamma camera data) ([1]; 5 min post injection, 5 min): 5.76 % total dose and 4.12 % total dose and 0.81 % total dose; % Total Dose In Bladder (gamma camera data) ([1]; 10 min post injection, 10 min): 15.30 % total dose and 12.39 % total dose and 9.87 % total dose; % Total Dose In Bladder (gamma camera data) ([1]; 15 min post injection, 15 min): 22.26 % total dose and 15.99 % total dose and 16.51 % total dose; % Total Dose In Bladder (gamma camera data) ([1]; 20 min post injection, 20 min): 28.21 % total dose and 21.59 % total dose and 22.50 % total dose; % Total Dose In Bladder (gamma camera data) ([1]; 25 min post injection, 25 min): 32.68 % total dose and 25.47 % total dose and 27.72 % total dose; % Total Dose In Bladder (gamma camera data) ([1]; 30 min post injection, 30 min): 38.08 % total dose and 30.43 % total dose and 32.34 % total dose; % Total Dose In Bladder (gamma camera data) ([1]; 35 min post injection, 35 min): 41.57 % total dose and 31.19 % total dose and 34.90 % total dose; % total dose in bladder at 35 minutes, Average 99mTc (± s.d) ([1]; 35 min): 35.89 % total dose; Comparison of % total dose in bladder versus 131I-OIH, column headed by drawing 19 (± s.d.) ([1]; 35 min): 46.80; rate of excretion in the urine [1]: a significant difference exists between (XXXIA) and (XXXIB); Average % Total Dose in Urine Samples ([2]; 5 min post injection, 5 min): 3.56 % total dose; Average % Total Dose in Urine Samples ([2]; 10 min post injection, 10 min): 12.52 % total dose; Average % Total Dose in Urine Samples ([2]; 15 min post injection, 15 min): 18.25 % total dose; Average % Total Dose in Urine Samples ([2]; 20 min post injection, 20 min): 24.10 % total dose; Average % Total Dose in Urine Samples ([2]; 25 min post injection, 25 min): 28.62 % total dose; Average % Total Dose in Urine Samples ([2]; 30 min post injection, 30 min): 33.63 % total dose; Average % Total Dose in Urine Samples ([2]; 35 min post injection, 35 min): 35.89 % total dose

Q: With O=C(O)C1C[S][Tc-]23(=[O])[S]CC[N]2C(=O)C(=O)[N]13 (single isomer, unassigned) [XXXIB] as the molecule, how does the “% Total Dose In Bladder (gamma camera data)” value ([1]; 5 min post injection, 5 min) read?
A: The value was 15.45 % total dose and 12.59 % total dose and 12.63 % total dose.

Q: And the “% Total Dose In Bladder (gamma camera data)” value ([1]; 10 min post injection, 10 min)?
A: The value was 37.76 % total dose and 28.47 % total dose and 27.98 % total dose.

Q: And the “% Total Dose In Bladder (gamma camera data)” value ([1]; 15 min post injection, 15 min)?
A: Its value is 49.26 % total dose and 41.85 % total dose and 35.28 % total dose.

Q: And the “% Total Dose In Bladder (gamma camera data)” value ([1]; 20 min post injection, 20 min)?
A: Its value is 61.08 % total dose and 48.71 % total dose and 43.22 % total dose.

Q: What about the “% Total Dose In Bladder (gamma camera data)” value ([1]; 25 min post injection, 25 min) of the same molecule?
A: Its value is 67.47 % total dose and 55.87 % total dose and 48.35 % total dose.

Q: And the “% Total Dose In Bladder (gamma camera data)” value ([1]; 30 min post injection, 30 min)?
A: The value was 70.23 % total dose and 60.72 % total dose and 50.84 % total dose.

Q: What about the “% Total Dose In Bladder (gamma camera data)” value ([1]; 35 min post injection, 35 min) of the same molecule?
A: The value was 69.76 % total dose and 61.09 % total dose and 57.93 % total dose.

Q: What about the “% total dose in bladder at 35 minutes, Average 99mTc (± s.d)” value ([1]; 35 min) of the same molecule?
A: The value was 62.93 % total dose.

Q: And the “Comparison of % total dose in bladder versus 131I-OIH, column headed by drawing 19 (± s.d.)” value ([1]; 35 min)?
A: The value was 77.80.

Q: And the “rate of excretion in the urine” value [1]?
A: The value was “a significant difference exists between (XXXIA) and (XXXIB)”.

Q: What about the “Average % Total Dose in Urine Samples” value ([2]; 5 min post injection, 5 min) of the same molecule?
A: The value was 13.56 % total dose.

Q: What about the “Average % Total Dose in Urine Samples” value ([2]; 10 min post injection, 10 min) of the same molecule?
A: Its value is 31.40 % total dose.

Q: What about the “Average % Total Dose in Urine Samples” value ([2]; 15 min post injection, 15 min) of the same molecule?
A: Its value is 42.13 % total dose.

Q: What about the “Average % Total Dose in Urine Samples” value ([2]; 20 min post injection, 20 min) of the same molecule?
A: The value was 51.00 % total dose.

Q: What about the “Average % Total Dose in Urine Samples” value ([2]; 25 min post injection, 25 min) of the same molecule?
A: Its value is 57.23 % total dose.

Q: And the “Average % Total Dose in Urine Samples” value ([2]; 30 min post injection, 30 min)?
A: Its value is 60.60 % total dose.

Q: What about the “Average % Total Dose in Urine Samples” value ([2]; 35 min post injection, 35 min) of the same molecule?
A: The value was 62.93 % total dose.

Q: For O=C([O-])CN(CCN(CC(=O)[O-])CC(=O)[O-])CCN(CC(=O)[O-])CC(=O)[O-].[99Tc+4] [Compound 99mTc-DTPA], which route of excretion [3] is on record?
A: Its route of excretion is “excreted exclusively by glomerular filtration”.
